SMILES strings stand for the structures. Like-named read-outs stand apart in the source and are kept apart here. *1 amine or outer side, *2 acyl side, *3 side chain or, on linkers, in order; H or OH if unused. Where a SMILES comes first, the peptide text is derived from it. Side-chain parts run from the residue outwards. [ ]: non-standard residue; d: D form. The star is where a group is joined. Isobutyryl(2-(3-CN-5-F-Ph)) = CC(C)(C(=O)*)c1cc(F)cc(C#N)c1; C20 diacid = O=C(O)CCCCCCCCCCCCCCCCCCC(=O)*; γGlu = O=C(O)[C@H](CCC(=O)[*:2])N[*:1]; NH(3-Cl-phenyl) = Clc1cccc(N*)c1; NH(4-Cl-phenyl) = Clc1ccc(N*)cc1; αMeF = C[C@](N)(Cc1ccccc1)C(=O)O; X2 = CC(C)(C(=O)*)c1cccc(F)c1; X60 = O=C(C1(c2cccnc2)CCCC1)*; αMeL = CC(C)C[C@](C)(N)C(=O)O; Orn = NCCC[C@H](N)C(=O)O; AEEA = NCCOCCOCC(=O)O; Aib = CC(C)(N)C(=O)O; CO = O=C([*:1])[*:2]; GABA = NCCCC(=O)O; βAla = NCCC(=O)O

In patent US12281149B2, “Modulators of G-protein coupled receptors” (priority 2021, dated 2025) one finds EC50 and Emax data, which are given here for 5 molecules.

Type in all cases: cell-based
Assay [1] addresses T1, GLP-1 receptor (Homo sapiens, UniProt P43220). In words: HitHunter cAMP assay, GLP-1 receptor. As to conditions: for Emax: read-out: Emax GLP-1R. (Cyclic AMP is a second messenger, typically raised through Gs and lowered through Gi signalling.)
Assay [2] addresses T2, GIP receptor (Homo sapiens, UniProt P48546).
T2 sequence (P48546 22-466): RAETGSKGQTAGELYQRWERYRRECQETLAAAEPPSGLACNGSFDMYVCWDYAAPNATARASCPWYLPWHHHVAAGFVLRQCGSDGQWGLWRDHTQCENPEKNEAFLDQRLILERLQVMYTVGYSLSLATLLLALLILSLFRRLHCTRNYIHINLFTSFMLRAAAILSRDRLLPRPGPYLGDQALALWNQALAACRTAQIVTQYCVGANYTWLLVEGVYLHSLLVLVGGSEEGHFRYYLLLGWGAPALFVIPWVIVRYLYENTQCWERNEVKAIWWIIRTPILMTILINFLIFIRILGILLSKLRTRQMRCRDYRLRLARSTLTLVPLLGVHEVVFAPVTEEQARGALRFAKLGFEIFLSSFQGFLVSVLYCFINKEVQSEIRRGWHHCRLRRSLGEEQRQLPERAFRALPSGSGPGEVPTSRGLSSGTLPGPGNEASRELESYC
Briefly: HitHunter cAMP assay, GIP receptor. As to conditions: for Emax: read-out: Emax GIP-1R.

The target of assay [3] is T2, GIP receptor. In words: PathHunter β-arrestin assay, GIP receptor. On the set-up: host or cells: PathHunter CHO-K1 GIPR β-Arrestin Cell Line.
The target in assay [4] is T1, GLP-1 receptor. Briefly: PathHunter β-arrestin assay, GLP-1 receptor. Set-up: host or cells: PathHunter CHO-K1 GLP1R β-Arrestin Cell Line.
Where [5] appears, read: CHO cells stably expressing human GLP-1 receptor, cAMP accumulation, 30 min, read-out: EC50 GLP-1R.
[6] abbreviates: CHO cells, cAMP, normalized to maximum signal from GLP-1 (high) and DMSO (low).
[7] abbreviates: CHO cells stably expressing GIP receptor, cAMP accumulation, 30 min, read-out: EC50 GIP-1R.
The mark [8] stands for this setting: CHO cells, cAMP, normalized to maximum signal from GIP (high) and DMSO (low).
Where [9] appears, read: β-arrestin-2 recruitment, PathHunter CHO-K1 GIPR β-Arrestin Cell Line, 90 min at 37° C., normalized to GIP, read-out: GIPR β Arrestin EC50.
Setting [10] is: β-arrestin-2 recruitment, PathHunter CHO-K1 GLP1R β-Arrestin Cell Line, 90 min at 37° C., normalized to GLP-1, read-out: GLP-1R β Arrestin EC50.

T1 sequence (P43220 24-463): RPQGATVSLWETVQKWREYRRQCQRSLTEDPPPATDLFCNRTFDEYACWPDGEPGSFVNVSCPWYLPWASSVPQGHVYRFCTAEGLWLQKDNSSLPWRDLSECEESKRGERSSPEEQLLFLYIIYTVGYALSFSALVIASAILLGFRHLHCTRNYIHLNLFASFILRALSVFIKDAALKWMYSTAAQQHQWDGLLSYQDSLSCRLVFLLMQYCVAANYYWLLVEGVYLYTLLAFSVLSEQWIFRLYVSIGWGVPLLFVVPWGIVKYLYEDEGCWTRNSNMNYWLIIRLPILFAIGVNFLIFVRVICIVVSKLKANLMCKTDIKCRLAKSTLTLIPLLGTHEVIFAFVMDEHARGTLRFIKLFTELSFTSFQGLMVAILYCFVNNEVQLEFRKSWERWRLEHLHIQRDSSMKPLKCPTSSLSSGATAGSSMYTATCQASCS

As usually defined, the EC50 is the concentration needed to bring the measured effect to its halfway point. The term Emax denotes the greatest response seen or fitted, relative to the assay's reference. Turning to `CC[C@H](C)[C@H](NC(=O)[C@H](CC(C)C)NC(=O)[C@H](Cc1c[nH]c2ccccc12)NC(=O)[C@H](CCC(N)=O)NC(=O)[C@@H](NC(=O)[C@H](Cc1ccccc1)NC(=O)[C@H](C)NC(=O)[C@H](CCCCNC(=O)COCCOCCNC(=O)COCCOCCNC(=O)CC[C@H](NC(=O)CCCCCCCCCCCCCCCCCCC(=O)O)C(=O)O)NC(=O)[C@H](CCC(N)=O)NC(=O)[C@H](C)NC(=O)[C@@H](NC(=O)[C@H](CCCCN)NC(=O)[C@H](CC(=O)O)NC(=O)[C@H](CC(C)C)NC(=O)C(C)(C)NC(=O)[C@@H](NC(=O)[C@H](CO)NC(=O)[C@H](Cc1ccc(O)cc1)NC(=O)[C@H](CC(=O)O)NC(=O)[C@H](CO)NC(=O)[C@@H](NC(=O)[C@H](Cc1ccccc1)NC(=O)[C@@H](NC(=O)CNC(=O)[C@H](CCC(=O)O)NC(=O)CCCNC(=O)CNC(=O)Nc1ccc(Cl)cc1)[C@@H](C)O)[C@@H](C)O)[C@@H](C)CC)[C@@H](C)CC)C(C)C)C(=O)N[C@@H](C)C(=O)NCC(=O)NCC(=O)N1CCC[C@H]1C(=O)N[C@@H](CO)C(=O)N[C@@H](CO)C(=O)NCC(=O)N[C@@H](C)C(=O)N1CCC[C@H]1C(=O)N1CCC[C@H]1C(=O)N1CCC[C@H]1C(=O)N[C@@H](CO)C(N)=O` [Compound 270] ({NH(4-Cl-phenyl)-CO}-G[GABA]EGTFTSDYSI[Aib]LDKIAQK([AEEA-AEEA-γGlu-C20 diacid])AFVQWLIAGGPSSGAPPPS-NH2), the EC50 on GLP-1 receptor [1] was 10 to 100 nM; on GIP receptor [2], 1 to 10 nM; at GIP receptor [3] it was < 1000 nM; on GLP-1 receptor [4], > 1000 nM. The Emax at GLP-1 receptor [1] (CHO) turned out to be 91%; at GIP receptor [2] (CHO) it was 104%.

On to `CC[C@H](C)[C@H](NC(=O)[C@H](CC(C)C)NC(=O)[C@H](Cc1c[nH]c2ccccc12)NC(=O)[C@H](CCC(N)=O)NC(=O)[C@@H](NC(=O)[C@H](Cc1ccccc1)NC(=O)[C@H](C)NC(=O)[C@H](CCCCNC(=O)COCCOCCNC(=O)COCCOCCNC(=O)CC[C@H](NC(=O)CCCCCCCCCCCCCCCCCCC(=O)O)C(=O)O)NC(=O)[C@H](CCC(N)=O)NC(=O)[C@H](C)NC(=O)[C@@H](NC(=O)[C@H](CCCCN)NC(=O)[C@H](CC(=O)O)NC(=O)[C@H](CC(C)C)NC(=O)C(C)(C)NC(=O)[C@@H](NC(=O)[C@H](CO)NC(=O)[C@H](Cc1ccc(O)cc1)NC(=O)[C@H](CC(=O)O)NC(=O)[C@H](CO)NC(=O)[C@@H](NC(=O)[C@](C)(Cc1ccccc1)NC(=O)[C@@H](NC(=O)CNC(=O)[C@H](CCC(=O)O)NC(=O)CCNC(=O)C1(c2cccnc2)CCCC1)[C@@H](C)O)[C@@H](C)O)[C@@H](C)CC)[C@@H](C)CC)C(C)C)C(=O)N[C@@H](C)C(=O)NCC(=O)NCC(=O)N1CCC[C@H]1C(=O)N[C@@H](CO)C(=O)N[C@@H](CO)C(=O)NCC(=O)N[C@@H](C)C(=O)N1CCC[C@H]1C(=O)N1CCC[C@H]1C(=O)N1CCC[C@H]1C(=O)N[C@@H](CO)C(N)=O` [Compound 234] ({X60-βAla}-EGT[αMeF]TSDYSI[Aib]LDKIAQK([AEEA-AEEA-γGlu-C20 diacid])AFVQWLIAGGPSSGAPPPS-NH2), for which the EC50 on GLP-1 receptor [1] (setting [5]) is 0.1 to 1 nM; at GIP receptor [2] (setting [7]) it was 0.1 to 1 nM; at GIP receptor [3] (setting [9]), < 1000 nM; at GLP-1 receptor [4] (setting [10]) it was > 1000 nM. The figures for the Emax on GLP-1 receptor [1] (setting [6]) and on GIP receptor [2] (setting [8]) were 105% and 112%, respectively.

As for `CC[C@H](C)[C@H](NC(=O)[C@H](CC(C)C)NC(=O)[C@H](Cc1ccc(O)cc1)NC(=O)[C@@H](CCC(=O)O)NC(=O)[C@@H](NC(=O)[C@H](Cc1ccccc1)NC(=O)[C@H](CCC(=O)O)NC(=O)C(C)(C)NC(=O)[C@H](CCC(N)=O)NC(=O)[C@H](C)NC(=O)[C@H](CCCCNC(=O)COCCOCCNC(=O)COCCOCCNC(=O)CC[C@H](NC(=O)CCCCCCCCCCCCCCCCCCC(=O)O)C(=O)O)NC(=O)[C@H](CCCN)NC(=O)[C@H](CC(=O)O)NC(=O)[C@H](CC(C)C)NC(=O)[C@](C)(CC(C)C)NC(=O)[C@@H](NC(=O)[C@H](CO)NC(=O)[C@H](Cc1ccc(O)cc1)NC(=O)[C@H](CC(=O)O)NC(=O)[C@H](CO)NC(=O)[C@@H](NC(=O)[C@H](Cc1ccccc1)NC(=O)[C@@H](NC(=O)CNC(=O)[C@H](CCC(=O)O)NC(=O)CCNC(=O)C(C)(C)c1cc(F)cc(C#N)c1)[C@@H](C)O)[C@@H](C)O)[C@@H](C)CC)[C@@H](C)CC)C(=O)N[C@@H](CCC(=O)O)C(=O)NCC(=O)NCC(=O)N1CCC[C@H]1C(=O)N[C@@H](CO)C(=O)N[C@@H](CO)C(=O)NCC(=O)N[C@@H](C)C(=O)N1CCC[C@H]1C(=O)N1CCC[C@H]1C(=O)N1CCC[C@H]1C(=O)N[C@@H](CO)C(N)=O` [Compound 134] ({Isobutyryl(2-(3-CN-5-F-Ph))-βAla}-EGTFTSDYSI[αMeL]LD[Orn]K([AEEA-AEEA-γGlu-C20 diacid])AQ[Aib]EFI[dE]YLIEGGPSSGAPPPS-NH2), the EC50 is 0.1 to 1 nM on GLP-1 receptor [1] (setting [5]), 1 to 10 nM at GIP receptor [2] (setting [7]), > 1000 nM at GIP receptor [3] (setting [9]) and > 1000 nM at GLP-1 receptor [4] (setting [10]). The Emax at GLP-1 receptor [1] (setting [6]) was determined as 102%; on GIP receptor [2] (setting [8]) it was 109%.

`CC[C@H](C)[C@H](NC(=O)[C@H](CC(C)C)NC(=O)[C@H](Cc1c[nH]c2ccccc12)NC(=O)[C@H](CCC(N)=O)NC(=O)[C@@H](NC(=O)[C@H](Cc1ccccc1)NC(=O)[C@H](C)NC(=O)[C@H](CCCCNC(=O)COCCOCCNC(=O)COCCOCCNC(=O)CC[C@H](NC(=O)CCCCCCCCCCCCCCCCCCC(=O)O)C(=O)O)NC(=O)[C@H](CCC(N)=O)NC(=O)[C@H](C)NC(=O)[C@@H](NC(=O)[C@H](CCCCN)NC(=O)[C@H](CC(=O)O)NC(=O)[C@H](CC(C)C)NC(=O)C(C)(C)NC(=O)[C@@H](NC(=O)[C@H](CO)NC(=O)[C@H](Cc1ccc(O)cc1)NC(=O)[C@H](CC(=O)O)NC(=O)[C@H](CO)NC(=O)[C@@H](NC(=O)[C@H](Cc1ccccc1)NC(=O)[C@@H](NC(=O)CNC(=O)[C@H](CCC(=O)O)NC(=O)CCNC(=O)C(C)(C)c1cccc(F)c1)[C@@H](C)O)[C@@H](C)O)[C@@H](C)CC)[C@@H](C)CC)C(C)C)C(=O)N[C@@H](C)C(=O)NCC(=O)NCC(=O)N1CCC[C@H]1C(=O)N[C@@H](CO)C(=O)N[C@@H](CO)C(=O)NCC(=O)N[C@@H](C)C(=O)N1CCC[C@H]1C(=O)N1CCC[C@H]1C(=O)N1CCC[C@H]1C(=O)N[C@@H](CO)C(N)=O` [Compound 240] ({X2-βAla}-EGTFTSDYSI[Aib]LDKIAQK([AEEA-AEEA-γGlu-C20 diacid])AFVQWLIAGGPSSGAPPPS-NH2): the EC50 on GLP-1 receptor [1] (setting [5]) is < 0.1 nM; at GIP receptor [2] (setting [7]), 1 to 10 nM; at GIP receptor [3] (setting [9]), < 1000 nM; on GLP-1 receptor [4] (setting [10]) it was < 1000 nM. For the same molecule, the figures for the Emax on GLP-1 receptor [1] (setting [6]) and on GIP receptor [2] (setting [8]) were 93% and 95%, respectively.

Consider `CC[C@H](C)[C@H](NC(=O)[C@H](CC(C)C)NC(=O)[C@H](Cc1c[nH]c2ccccc12)NC(=O)[C@H](CCC(N)=O)NC(=O)[C@@H](NC(=O)[C@H](Cc1ccccc1)NC(=O)[C@H](C)NC(=O)[C@H](CCCCNC(=O)COCCOCCNC(=O)COCCOCCNC(=O)CC[C@H](NC(=O)CCCCCCCCCCCCCCCCCCC(=O)O)C(=O)O)NC(=O)[C@H](CCC(N)=O)NC(=O)[C@H](C)NC(=O)[C@@H](NC(=O)[C@H](CCCCN)NC(=O)[C@H](CC(=O)O)NC(=O)[C@H](CC(C)C)NC(=O)C(C)(C)NC(=O)[C@@H](NC(=O)[C@H](CO)NC(=O)[C@H](Cc1ccc(O)cc1)NC(=O)[C@H](CC(=O)O)NC(=O)[C@H](CO)NC(=O)[C@@H](NC(=O)[C@H](Cc1ccccc1)NC(=O)[C@@H](NC(=O)CNC(=O)[C@H](CCC(=O)O)NC(=O)CCCNC(=O)CNC(=O)Nc1cccc(Cl)c1)[C@@H](C)O)[C@@H](C)O)[C@@H](C)CC)[C@@H](C)CC)C(C)C)C(=O)N[C@@H](C)C(=O)NCC(=O)NCC(=O)N1CCC[C@H]1C(=O)N[C@@H](CO)C(=O)N[C@@H](CO)C(=O)NCC(=O)N[C@@H](C)C(=O)N1CCC[C@H]1C(=O)N1CCC[C@H]1C(=O)N1CCC[C@H]1C(=O)N[C@@H](CO)C(N)=O` [Compound 273] ({NH(3-Cl-phenyl)-CO}-G[GABA]EGTFTSDYSI[Aib]LDKIAQK([AEEA-AEEA-γGlu-C20 diacid])AFVQWLIAGGPSSGAPPPS-NH2), for which the EC50 on GLP-1 receptor [1] is 1 to 10 nM; at GIP receptor [2], 1 to 10 nM; on GIP receptor [3] it was > 1000 nM; on GLP-1 receptor [4] it was > 1000 nM. The maximum response (Emax) on GLP-1 receptor [1] (CHO) is 106%; at GIP receptor [2] (CHO), 99%.
